Test results from patent US12187696B2, “Urea motif containing compounds and derivatives thereof as antibacterial drugs” (Technische Universität München, priority 2016, dated 2025).
In brackets after ≈: the same amount, converted by molar mass. Entries after “also recorded” stand apart in the source; their conditions may differ.

Legend:
Plasma stability assay = type: in vitro ADME, mouse; settings: 10 μM, 37° C., up to 6 h (360 min), LC-MS
Procedure: The in vitro stability was tested by a LC-MS based method. Mouse plasma was purchased from biowest (mouse plasma w/lithium heparin, sterile filtered S2162-010) and used as a 1:1 dilution with potassium phosphate buffer (0.1 M, pH 7.4). Final assay concentration of DMSO from compound stocks was 1%. AV1, a β-lactone with known low plasma stability, was used as positive control at a concentration of 50 μM. The compound stability test in plasma was initiated by the addition of 10 μM compound of interest (50 μM in the case of AV1) to 250 μL of diluted mouse plasma at 37° C. Directly after compound addition the reaction mixture was shortly mixed by vortexing and the first sample of 25 μL was withdrawn (time point 0 min). Every sample was quenched immediately by the addition 30 μL of pre-chilled acetonitrile. The reaction mixture was incubated at 37° C. with gentle shaking at 600 rpm. At certain time points (5, 10, 20, 30, 60, 120, 240, 360 min) additional samples (25 μL) were taken for every test compound, quenched as described and stored at −20° C. […] Quantitative LC-MS analysis was performed by LCQ-Fleet Ion Trap Mass Spectrometer equipped with an APCI ion source and a DionexHPLC system using a Waters Xbridge BEH130 C18 column (5 μM 4.6×100 mm). […] Plasma stability was determined in three independent experiments.

Pseudomonas aeruginosa = assay: Minimal inhibitory concentration (MIC) assay; type: cell-based; settings: B medium
[1] = tested on: Staphylococcus aureus Bk95395; assay: Minimal inhibitory concentration (MIC) assay; type: cell-based; settings: Staphylococcus aureus Bk95395 (clinical isolate); B medium
[2] = tested on: Staphylococcus aureus VA412350; assay: Minimal inhibitory concentration (MIC) assay; type: cell-based; settings: Staphylococcus aureus VA412350 (clinical isolate); B medium
[3] = tested on: Staphylococcus aureus VA418879; assay: Minimal inhibitory concentration (MIC) assay; type: cell-based; settings: Staphylococcus aureus VA418879 (clinical isolate); B medium
[4] = tested on: Staphylococcus aureus VA402923; assay: Minimal inhibitory concentration (MIC) assay; type: cell-based; settings: Staphylococcus aureus VA402923 (clinical isolate); B medium
[5] = tested on: Staphylococcus aureus IS050678; assay: Minimal inhibitory concentration (MIC) assay; type: cell-based; settings: Staphylococcus aureus IS050678 (clinical isolate); B medium
S. aureus NCTC 8325 = type: cell-based
[6] = tested on: Mycobacterium tuberculosis H37Rv; assay: Minimal inhibitory concentration (MIC) assay; type: cell-based; settings: 7H9 medium
[7] = tested on: Staphylococcus aureus Bk97296; assay: Minimal inhibitory concentration (MIC) assay; type: cell-based; settings: Staphylococcus aureus Bk97296 (clinical isolate); B medium
S. aureus NCTC8325 = assay: Analysis of S. aureus NCTC8325 secretome; settings: 0.5×MIC (PK/X17-1-150 0.15 μM, sorafenib 1.5 μM), 1.5 h
[8] = tested on: Staphylococcus aureus IS050611; assay: Minimal inhibitory concentration (MIC) assay; type: cell-based; settings: Staphylococcus aureus IS050611 (clinical isolate); B medium
[9] = tested on: S. aureus NCTC 8325 persister cells; assay: Persister cell assay I; type: cell-based; settings: gentamicin-selected persisters in PBS; 70 h; 2.4 μM PK/X17-1-150, 24 μM sorafenib, 5 μg/mL ciprofloxacin
Bacillus subtilis = assay: Minimal inhibitory concentration (MIC) assay; type: cell-based; settings: LB medium
[10] = tested on: S. aureus NCTC 8325 persister cells; assay: Persister cell assay II; type: cell-based; settings: TSB, with or without 30 μg/mL oxacillin; 20 h or 70 h; 2.4 μM PK/X17-1-150 or PK/X17-4-011, 24 μM sorafenib or PK/X17-2-011, 5 μg/mL ciprofloxacin
Procedure: Persister cell assay II. Tryptic soy broth (50 mL in 250 mL culture flasks) was inoculated 1:1000 with overnight cultures of NCTC 8325 and grown at 37° C. and 200 rpm until an OD600 of 4 was reached or overnight (ON). Serial dilution were prepared and plated to determine the cell numbers in the inoculum. […]. […] After 20 h (A) or 70 h (B) of treatment, cells were harvested, washed two times with PBS (10000×g, 3 min), serially diluted and plated on agar plates for determination of surviving cell numbers.

[11] = biological target: T1, Signal peptidase IB enzyme (SpsB) (Staphylococcus aureus, UniProt P0A070); assay: SpsB FRET peptidase assay with membrane fraction; settings: for activity of SpsB: 100 μM compound, SpsB-containing membrane fraction of S. aureus, DMSO treated control 1.8 A·U/s; for SpsB peptidase activity (in words): FRET assay, 100 μM, compared to DMSO treated control
T1 sequence (P0A070 1-191): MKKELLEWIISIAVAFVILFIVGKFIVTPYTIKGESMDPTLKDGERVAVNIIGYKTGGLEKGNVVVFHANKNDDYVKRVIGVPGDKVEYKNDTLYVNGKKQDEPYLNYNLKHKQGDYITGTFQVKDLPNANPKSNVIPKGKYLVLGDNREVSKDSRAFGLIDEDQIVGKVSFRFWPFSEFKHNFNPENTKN

[12] = tested on: Staphylococcus aureus VA409044; assay: Minimal inhibitory concentration (MIC) assay; type: cell-based; settings: Staphylococcus aureus VA409044 (clinical isolate); B medium
[13] = tested on: Staphylococcus aureus DSM18827; assay: Minimal inhibitory concentration (MIC) assay; type: cell-based; settings: B medium

For `O=C(Nc1ccc2c(c1)OC(F)(F)O2)Nc1ccc(Cl)c(C(F)(F)F)c1` [Example 4, 1-(4-Chloro-3-(trifluoromethyl)phenyl)-3-(2,2-difluorobenzo[d][1,3]dioxol-5-yl)urea], the “stability in mouse plasma” value (Plasma stability assay) was “excellent stability in plasma for several hours”, the MIC (Pseudomonas aeruginosa) was > 100 µM and the MIC [1] was 0.3 µM (≈ 0.118 µg/mL). For the same molecule, the MIC [2] was 0.3 µM (≈ 0.118 µg/mL), the MIC [3] was 0.3 µM (≈ 0.118 µg/mL) and the MIC [4] was 0.3 µM (≈ 0.118 µg/mL). For the same molecule, the MIC [5] was 0.3 µM (≈ 0.118 µg/mL), the “resistance development on serial passaging” value (S. aureus NCTC 8325; S. aureus NCTC 8325, subinhibitory levels, 27 days, listed as PK/X17-1-150) was “did not induce resistance; also recorded: no resistant development” and the “activity against S. aureus that developed resistance against sorafenib” value (S. aureus NCTC 8325; preliminary results) was “still active”. For the same molecule, the MIC [6] was 2 µM (≈ 0.789 µg/mL), the MIC [7] was 0.3 µM (≈ 0.118 µg/mL) and the “secretome (secreted proteins) vs DMSO” value (S. aureus NCTC8325) was “Essential cell wall biosynthesis proteins are among the processed proteins; also recorded: strong increase of extracellular proteins”. The MIC [8] was 0.3 µM (≈ 0.118 µg/mL), the “viable persister cells (CFU/mL) vs DMSO control” value [9] was “significant reduction of viable cells” and the MIC (Bacillus subtilis) was 1 µM (≈ 0.395 µg/mL). For the same molecule, the “viable persister cells (CFU/mL) vs DMSO control” value [10] was “significant reduction of viable cells”, the “activity of SpsB” value [11] was 4.3 A·U/s and the “SpsB peptidase activity (in words)” value ([11]; listed as PK/X17-1-150) was “increased SpsB peptidase activity; also recorded: stimulates peptidase activity”. It also gave an MIC [12] of 0.3 µM (≈ 0.118 µg/mL) and an MIC [13] of 0.3 µM (≈ 0.118 µg/mL).

For `CNC(=O)c1cc(Oc2ccc(NC(=O)Nc3ccc(Cl)c(C(F)(F)F)c3)cc2)ccn1` [Sorafenib, reference compound], the “stability in mouse plasma” value (Plasma stability assay) was “excellent stability in plasma for several hours”, the MIC (Pseudomonas aeruginosa) was > 100 µM and the MIC [1] was 5 µM (≈ 2.32 µg/mL). For the same molecule, the MIC [2] was 5 µM (≈ 2.32 µg/mL), the MIC [3] was 5 µM (≈ 2.32 µg/mL) and the MIC [4] was 5 µM (≈ 2.32 µg/mL). For the same molecule, the MIC [5] was 5 µM (≈ 2.32 µg/mL), the “first signs of lower sensitivity” value (S. aureus NCTC 8325; serial passaging of S. aureus) was ≤ 5 days and the “increase of minimal inhibitory concentration (factor)” value (S. aureus NCTC 8325; serial passaging, within the first 10 days) was 40. For the same molecule, the MIC [6] was 25 µM (≈ 11.6 µg/mL), the MIC [7] was 5 µM (≈ 2.32 µg/mL) and the “secretome (secreted proteins) vs DMSO” value (S. aureus NCTC8325) was “SpsB substrates are secreted; also recorded: strong increase of extracellular proteins”. For the same molecule, the MIC [8] was 3 µM (≈ 1.39 µg/mL), the “viable persister cells (CFU/mL) vs DMSO control” value [9] was “significant reduction of viable cells” and the MIC (Bacillus subtilis) was 5 µM (≈ 2.32 µg/mL). The “viable persister cells (CFU/mL) vs DMSO control” value [10] was “significant reduction of viable cells”, the “activity of SpsB” value [11] was 2.6 A·U/s and the “SpsB peptidase activity (in words)” value [11] was “increased SpsB peptidase activity; also recorded: stimulates peptidase activity”. It also gave an MIC [12] of 3 µM (≈ 1.39 µg/mL) and an MIC [13] of 3 µM (≈ 1.39 µg/mL).
